Results taken from PMC8386742, “Discovery of N-aryl sulphonamide-quinazoline derivatives as anti-gastric cancer agents in vitro and in vivo via activating the Hippo signalling pathway” (Journal of Enzyme Inhibition and Medicinal Chemistry, 2021).

Tests used:
[1] = test system: PC-3 cells; assay: MTT antiproliferative assay, PC-3 cells; format: cell-based, human; details: Homo sapiens, PC-3, exposure for 48 h
Procedure: (§1) The in vitro antiproliferative activities of new target compounds 6a–6g, 9a–9i, 10a–10j, 11a–11j, and 14a–14d were evaluated against four human cancer cell lines (MGC-803, PC-3, HCT-116, and MCF-7) using MTT assay and 5-FU as a positive drug. The following Tables 1–[4] depicted the results of in vitro antiproliferative activity.
(§2) Cell lines used were cultured in humidified incubator in a humidified atmosphere of 5% CO2 and 95% air. The RPMI-1640 medium was supplemented with 10% foetal bovine serum, penicillin (100 U/ml) and streptomycin (0.1 mg/ml).
(§3) Cell lines were seeded into 96-well plates and incubated for 24 h. Then cells were treated with different concentrations of compounds. And after another 48 h, MTT reagent (20 μL per well) was added to each well and then incubated at 37 °C for 4 h. After the suspension was discarded, formazan was then dissolved with DMSO. Absorbencies of formazan solution were measured at 490 nm. The IC50 values of tested compounds were calculated by SPSS version 17.0.

[2] = test system: MCF-7 cells; assay: MTT antiproliferative assay, MCF-7 cells; format: cell-based, human; details: exposure for 48 h
Procedure: as §1, §2, §3

[3] = test system: SGC-7901 cells; assay: MTT antiproliferative assay, SGC-7901 gastric cancer cells; format: cell-based; details: Homo sapiens, SGC-7901, exposure for 48 h
Procedure: (§4) Furthermore, MGC-803 cells were more sensitive to the compounds than HCT-116, PC-3 cells MCF-7 cells. Moreover, we chose two other common gastric cancer cell lines (HGC-27 and SGC-7901) and another two normal cells GES-1 and HUEVC cells to examine for the inhibitory activity of compound 9i.
as §2, §3

[4] = test system: GES-1 cells; assay: MTT antiproliferative assay, GES-1 normal gastric epithelial cells; format: cell-based
Text: as §4
Since compound 9i presented high potency against cancer cells and MGC-803 cells was more sensitive to compound 9i, compound 9i, MGC-803, another two gastric cancer cells SGC-7901, HGC-27, and GES-1(normal gastric epithelial cells) were used for further detection. As shown in Figures 3(A,B), compound 9i inhibited three gastric cancer cell lines in the dose and time-dependent manners. The inhibition ratios of compound 9i against three gastric cancer cells were all above 50% after 48 h in the high dosage group. Moreover, MGC-803 and SGC-7901 cell lines were more sensitive and compound 9i inhibited over 65% cell viability with high dose treatment for 48 h.
as §2, §3

[5] = test system: HUEVC cells; assay: MTT antiproliferative assay, HUEVC normal cells; format: cell-based; details: exposure for 48 h, non-cancer cell line
Procedure: as §4, §2, §3

[6] = test system: Hippo signalling pathway; assay: Western blotting / mRNA of Hippo related proteins in MGC-803 and SGC-7901 cells; format: cell-based
Text: Phosphorylation of YAP is the process of YAP inactivation. YAP protein is inactivated (phosphorylated) by Hippo cascade pathway in cells. […] We also investigated the influence of 9i on upstream signal-regulated molecules of the Hippo pathway. […] Transcription factor TEAD interacts with YAP to express downstream substrates, the level of TEAD was not changed by compound 9i (Figures 4(A,B)). Yap entering the nucleus is a key step of substrates expression. With the treatment of compound 9i, the level of YAP inside nuclear was decreased (Figure 4(C)).
Figure 4. Influence of 9i on the Hippo signalling pathway in two gastric cancer cells. Density ratios relative to its loading control protein (β-Actin/LaminB1/GAPDH) were shown on the top of each Western blotting band. (A) The levels of Hippo related proteins, cells were treated with indicated concentrations of 9i for 12 h; (B) The levels of Hippo related proteins in different hours after the treatment with 450 nM of 9i; (C) Level of YAP in the cytoplasm and nuclear, cells were treated for 12 h with 450 nM of 9i; (D) Levels of Bcl-2 and c-Myc in MGC-803 cells after the treatment with 450 nM of 9i for different hours; (E) mRNA levels of Bcl-2 and c-My in MGC-803 cells after the treatment with 450 nM of 9i 12 h. Data were presented as mean ± SD.
2 gastric cancer cells were seeded in dishes and treated with 9i or DMSO. After 48 h, MGC-803 and SGC-7901 cells were collected and then lysed. The denatured lysates of each groups were electrophoretic separated in SDS-PAGE. Proteins were then transferred onto PVDF membranes from gels. After blocking for 2 h, membranes were incubated with primary antibodies conjugation. Then, the membranes were washed and incubated with 2nd antibodies. At last, specific proteins were detected.

[7] = test system: MGC-803 and SGC-7901 cells; assay: Colony formation assay in gastric cancer cells; format: cell-based; details: 150 nM, 7 days
Text: Because of the potent inhibitory activity on cell viability of compound 9i, we next explored the effects of compound 9i on cell proliferation in MGC-803 and SGC-7901 cells.
Figure 6. Gastric cancer cell proliferation inhibition inhibited by 9i. Density ratios relative to β-Actin were shown on the top of each Western blotting band. (A,B) Cell growth curves of in MGC-803 and SGC-7901 cells after the treatment with indicated concentrations of 9i for different hours; (C,D). Gastric cancer cell colony formation, cells were treated for 7 days; (E) Cell cycle distribution of MGC-803 and SGC-7901 after the treatment with indicated concentrations of 9i for 24 h; (F,G) Cell cycle related proteins in gastric cancer cells after the treatment with indicated concentrations of 9i for 24 h.
In this work, some other assays including colony formation assay, cell apoptosis assay and immunostaining assay were referred to our previous work[35]^,[36].

[8] = test system: P38, ERK, AKT, mTOR and Wnt pathways; assay: Activity on P38, ERK, AKT, mTOR and Wnt pathways in cells; format: cell-based; details: 20, 40 and 60 nM, 48 hours
Text: In this work, compound 9i was design and synthesized by SAR study of our reported tertiary amide derivatives compound 1 and compound 2. Therefore, we tested the influence of compound 9i on tubulin polymerization and AKT/mTOR and ERK […]
influence on tubulin polymerization and P38, ERK, AKT, mTOR and Wnt pathways . […]
pathway. Therefore, we here reported N-sulfonamide-quinazoline derivatives as novel anti-gastric cancer agents via activating the Hippo signaling pathway in vitro and in […]
Supporting Figure S1. A. Activity of compound 9i on tubulin polymerization . Tubulin polymerization extracellular, concentrations of Paclitaxel, Colchicine and 9i were 3 μmol/L; Activity of compound 9i on P38, ERK, AKT, mTOR and Wnt pathways, cells were incubated with […]
(1 picture or pasted object on this page, not shown here)

Structure (SMILES): COc1ccc(S(=O)(=O)N(Cc2nc(C)c3ccccc3n2)c2cc(OC)c(OC)c(OC)c2)cc1 [Compound 9i, 4-Methoxy-N-((4-methylquinazolin-2-yl)methyl)-N-(3,4,5-trimethoxyphenyl) benzene-sulfonamide]
- IC50 [1]: 1.04 ± 0.13 µM
- IC50 ([2]; Homo sapiens, MCF7, 48 h): 0.816 µM
- IC50 [2]: 0.81 ± 0.06 µM
- IC50 [3]: 0.376 µM
- IC50 ([4]; Homo sapiens, GES1, MTT, exposure for 48 h, non-cancer cell line): 0.894 µM
- cytotoxicity towards GES-1 cells ([4]; normal gastric epithelial cells): low cytotoxicity
- IC50 [5]: 26.2 µM
- MST1 and SAV levels ([6]; MGC-803 and SGC-7901 cells): did not show an obvious change
- level of TEAD ([6]; MGC-803 and SGC-7901 cells): not changed
- level of YAP ([6]; MGC-803 and SGC-7901 cells): reduced level of YAP
- p-LATS level ([6]; MGC-803 and SGC-7901 cells): up-regulated
- phosphorylation of YAP ([6]; MGC-803 and SGC-7901 cells, dose and time-dependent): up-regulated the phosphorylation of YAP
- Bcl-2 and c-Myc expression ([6]; two gastric cancer cells, mRNA and protein): down-regulated at mRNA and protein levels
- colony formation [7]: significantly decreased
- influence on P38, ERK, AKT, mTOR and Wnt pathways [8]: no strong influence
